# Experimental data from paper PMC5628445, “Four terpene synthases contribute to the generation of chemotypes in tea tree (Melaleuca alternifolia)” (BMC Plant Biology, 2017).
# Key:
# Assay in all cases: radiometric assay, pentane extraction and scintillation counting; Lineweaver-Burk
# Assay type in all cases: biochemical, Melaleuca alternifolia
# [1] = system: T1, MaTPS-Cin (1,8-cineole synthase); MaTPS-CinA; conditions: 0.25 mM manganese; 30 °C; 10 min; 1–30 μM 3H-GPP; crude E. coli extract; labelled compound
# T1 construct: vector pASK-IBA7; expressed in E. coli, crude extract
# Source text: radiometric assay, pentane extraction and scintillation counting; Lineweaver-Burk on MaTPS-Cin (1,8-cineole synthase); MaTPS-CinA
# [2] = system: T2, MaTPS-SaH (sabinene hydrate synthase); conditions: 0.25 mM manganese; 30 °C; 15 min; 1–30 μM 3H-GPP; crude E. coli extract; labelled compound
# T2 construct: vector pASK-IBA7; expressed in E. coli, crude extract
# Source text: radiometric assay, pentane extraction and scintillation counting; Lineweaver-Burk on MaTPS-SaH (sabinene hydrate synthase)
# [3] = system: T3, MaTPS-Tln (terpinolene synthase); conditions: 0.25 mM manganese; 30 °C; 15 min; 3H-GPP up to 100 μM; crude E. coli extract; labelled compound
# T3 construct: vector pASK-IBA7; expressed in E. coli, crude extract
# Source text: radiometric assay, pentane extraction and scintillation counting; Lineweaver-Burk on MaTPS-Tln (terpinolene synthase)
smiles,measurement,setting,value
CC(C)=CCC/C(C)=C/COP(=O)(O)OP(=O)(O)O [GPP],Km,[1],31 ± 6.26 µM
same,Km,[2],11 ± 2 µM
same,Km,[3],21 ± 3.18 µM
